Measurements from US11440913B2, “Aminoimidazopyridazines as kinase inhibitors” (BRISTOL-MYERS SQUIBB COMPANY, priority 2017, dated 2022).
Structures can show the parent of a compound that is named as a salt. Where two headings read alike, the source gives them in different places.

Tests used:
[1] = target: His-GST-TVMV-hRIPK1(1-324) (Homo sapiens (Human), UniProt Q13546); experiment: RIPK1 HTRF Binding Assay; settings: HTRF binding, 1 h at rt; read-out: RIPK1 (IC50)
Method in brief: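 HTRF probe-displacement binding: 1 nM His-GST-TVMV-hRIPK1(1-324) (baculovirus construct), 90.6 nM probe, 0.2 nM anti-GST-Tb in 20 mM HEPES, 10 mM MgCl2, 0.015% Brij-35, 4 mM DTT, 0.05 mg/mL BSA. Incubated 1 h at rt; FRET 520/495 nm ratio, inhibition relative to DMSO-only wells.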

[2] = test system: MLKL phosphorylation in HT29-L23 human colorectal adenocarcinoma cells; experiment: MLKL Phosphorylation High-Content Assay; type: cell-based; settings: 6 h, necroptosis induced with TNFα, SMAC mimetic and Z-VAD, read-out: pMLKL (IC50)
Method in brief: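 HT29-L23 cells pretreated 30 min at 37 °C with compound (6.25 to 0.106 μM final), then necroptosis induced with TNFα 35 ng/mL, SMAC mimetic 700 nM and Z-VAD 140 nM for 6 h. Fixed cells immunostained for MLKL pS358 and imaged; IC50 and Ymax from 4-parameter logistic fit.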

Chain of His-GST-TVMV-hRIPK1(1-324) (Q13546 1-324): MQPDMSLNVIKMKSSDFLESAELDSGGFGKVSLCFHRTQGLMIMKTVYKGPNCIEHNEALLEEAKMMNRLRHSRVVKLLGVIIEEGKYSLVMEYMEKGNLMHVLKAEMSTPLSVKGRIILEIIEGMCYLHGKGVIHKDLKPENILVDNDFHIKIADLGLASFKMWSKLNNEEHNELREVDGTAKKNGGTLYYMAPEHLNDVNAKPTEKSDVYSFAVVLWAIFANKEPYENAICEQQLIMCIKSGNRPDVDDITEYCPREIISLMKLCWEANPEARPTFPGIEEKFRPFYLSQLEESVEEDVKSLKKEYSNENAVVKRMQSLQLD

[2H]C([2H])([2H])Oc1nc(C)c(-c2ccc3nc(NC(C)=O)cn3n2)cc1C(=O)NCc1cc(OC(F)(F)F)ccc1F [Example 179, 5-{2-acetamidoimidazo[1,2-b]pyridazin-6-yl}-N-{[2-fluoro-5-(trifluoromethoxy)phenyl]methyl}-2-(deutero)methoxy-6-methylpyridine-3-carboxamide]
IC50 [1]: 3 nM
IC50 ([2]; Homo sapiens): 13 nM

[2H]C([2H])([2H])Oc1nc(C)c(-c2ccc3nc(NC(C)=O)cn3n2)cc1C(=O)NCc1cc(OCC2CC2)ccc1F [Example 180, N-{[5-(cyclopropyhnethoxy)-2-fluorophenyl]methyl}-5-{2-acetamidoimidazo[1,2-b]pyridazin-6-yl}-2-(deutero)methoxy-6-methylpyridine-3-carboxamide]
IC50 [1]: 4 nM
IC50 ([2]; Homo sapiens): 18 nM

Cc1ncc(-c2ccc3nc(NC(=O)CO)cn3n2)cc1C(=O)N[C@@H](C)c1cc(OC(F)(F)F)ccc1F [Example 181, N-[(1S)-1-[2-fluoro-5-(trifluoromethoxy)phenyl]ethyl]-5-[2-(2-hydroxyacetamido)imidazo[1,2-b]pyridazin-6-yl]-2-methylpyridine-3-carboxamide]
IC50 [1]: 103 nM
IC50 ([2]; Homo sapiens): 171 nM

Cc1ncc(-c2ccc3nc(NC(=O)CO)cn3n2)cc1C(=O)N[C@H](C)c1cc(C(F)(F)F)ccc1F [Example 182, N-[(1R)-1-[2-fluoro-5-(trifluoromethyl)phenyl]ethyl]-5-[2-(2-hydroxyacetamido)imidazo [1,2-b]pyridazin-6-yl]-2-methylpyridine-3-carboxamide, TFA]
IC50 [1]: 272 nM
IC50 ([2]; Homo sapiens): 455 nM

Cc1ncc(-c2ccc3nc(NC(=O)CO)cn3n2)cc1C(=O)NCc1cc(C(F)(F)F)ccc1F [Example 183, N-{[2-fluoro-5-(trifluoromethyl)phenyl]methyl}-5-[2-(2-hydroxyacetamido)imidazo [1,2-b]pyridazin-6-yl]-2-methylpyridine-3-carboxamide]
IC50 [1]: 166 nM
IC50 ([2]; Homo sapiens): 392 nM

[2H]C([2H])(NC(=O)c1cc(-c2ccc3nc(NC(=O)CO)cn3n2)cnc1C)c1cc(F)cc(F)c1OC1CCOCC1 [Example 184, N-{[3,5-difluoro-2-(oxan-4-yloxy)phenyl](deutero)methyl}-5-[2-(2-hydroxyacetamido)imidazo [1,2-b]pyridazin-6-yl]-2-methylpyridine-3-carboxamide]
IC50 [1]: 9 nM
IC50 ([2]; Homo sapiens): 177 nM

Cc1ncc(-c2ccc3nc(NC(=O)CO)cn3n2)cc1C(=O)N[C@H](C)c1cc(OC(F)(F)F)ccc1F [Example 185, N-[(1R)-1-[2-fluoro-5-(trifluoromethoxy)phenyl]ethyl]-5-[2-(2-hydroxyacetamido)imidazo [1,2-b]pyridazin-6-yl]-2-methylpyridine-3-carboxamide]
IC50 [1]: 30 nM
IC50 ([2]; Homo sapiens): 81 nM

CC(=O)Nc1cn2nc(-c3cnc(C)c(C(=O)NCc4cc(F)cc(F)c4OC4CCCOC4)c3)ccc2n1 (centres unmarked) [Example 186, N-{[3,5-difluoro-2-(oxan-3-yloxy)phenyl]methyl}-5-{2-acetamidoimidazo[1,2-b]pyridazin-6-yl}-2-methylpyridine-3-carboxamide]
IC50 [1]: 15 nM
IC50 ([2]; Homo sapiens): 96 nM

CC(=O)Nc1cn2nc(-c3cnc(C)c(C(=O)NCc4cc(F)cc(F)c4O[C@H]4CCOC4)c3)ccc2n1 [Example 187, N-({3,5-difluoro-2-[(3S)-oxolan-3-yloxy]phenyl}methyl)-5-{2-acetamidoimidazo [1,2-b]pyridazin-6-yl}-2-methylpyridine-3-carboxamide]
IC50 [1]: 18 nM
IC50 ([2]; Homo sapiens): 148 nM

CC(=O)Nc1cn2nc(-c3cnc(C)c(C(=O)NCc4cc(F)cc(F)c4OC4CCOC(C)C4)c3)ccc2n1 (centres unmarked) [Example 188, N-({3,5-difluoro-2-[(2-methyloxan-4-yl)oxy]phenyl}methyl)-5-{2-acetamidoimidazo [1,2-b]pyridazin-6-yl}-2-methylpyridine-3-carboxamide]
IC50 [1]: 22 nM
IC50 ([2]; Homo sapiens): 217 nM

CC(=O)Nc1cn2nc(-c3cnc(C)c(C(=O)NCc4cc(F)cc(F)c4OC4CC(C)OC(C)C4)c3)ccc2n1 (centres unmarked) [Example 189, N-({2-[(2,6-dimethyloxan-4-yl)oxy]-3,5-difluorophenyl}methyl)-5-{2-acetamidoimidazo [1,2-b]pyridazin-6-yl}-2-methylpyridine-3-carboxamide]
IC50 [1]: 91 nM
IC50 ([2]; Homo sapiens): 208 nM

CC(=O)Nc1cn2nc(-c3cnc(C)c(C(=O)NCc4c(F)cccc4OCC(F)(F)F)c3)ccc2n1 [Example 190, 5-{2-acetamidoimidazo[1,2-b]pyridazin-6-yl}-N-{[2-fluoro-6-(2,2,2-trifluoroethoxy)phenyl]methyl}-2-methylpyridine-3-carboxamide]
IC50 [1]: 23 nM
IC50 ([2]; Homo sapiens): 35 nM

CC(=O)Nc1cn2nc(-c3cnc(C)c(C(=O)NCc4cc(C(F)(F)F)ccn4)c3)ccc2n1 [Example 191, 5-{2-acetamidoimidazo[1,2-b]pyridazin-6-yl}-2-methyl-N-{[4-(trifluoromethyl)pyridin-2-yl]methyl}pyridine-3-carboxamide]
IC50 [1]: 938 nM
IC50 ([2]; Homo sapiens): 86 nM

CC(=O)Nc1cn2nc(-c3cnc(C)c(C(=O)NCc4ccccc4OCC(F)(F)F)c3)ccc2n1 [Example 193, 5-{2-acetamidoimidazo[1,2-b]pyridazin-6-yl}-2-methyl-N-{[2-(2,2,2-trifluoroethoxy)phenyl]methyl}pyridine-3-carboxamide]
IC50 [1]: 56 nM
IC50 ([2]; Homo sapiens): 61 nM

CC(=O)Nc1cn2nc(-c3cnc(C)c(C(=O)NCc4cccc(OCC(F)(F)F)c4)c3)ccc2n1 [Example 194, 5-{2-acetamidoimidazo[1,2-b]pyridazin-6-yl}-2-methyl-N-{[3-(2,2,2-trifluoroethoxy)phenyl]methyl}pyridine-3-carboxamide]
IC50 [1]: 100 nM
IC50 ([2]; Homo sapiens): 141 nM

CC(=O)Nc1cn2nc(-c3cnc(C)c(C(=O)NCc4cc(F)ccc4OCC(F)(F)F)c3)ccc2n1 [Example 195, 5-{2-acetamidoimidazo[1,2-b]pyridazin-6-yl}-N-{[5-fluoro-2-(2,2,2-trifluoroethoxy)phenyl]methyl}-2-methylpyridine-3-carboxamide]
IC50 [1]: 43 nM
IC50 ([2]; Homo sapiens): 188 nM

[2H]C([2H])([2H])[C@H](NC(=O)c1cc(-c2ccc3nc(NC(C)=O)cn3n2)cnc1C)c1cc(C(F)(F)F)ccc1F [Example 196, 5-{2-acetamidoimidazo[1,2-b]pyridazin-6-yl}-N-[(1S)-1-[2-fluoro-5-(trifluoromethyl)phenyl](2,2,2-deutero)ethyl]-2-methylpyridine-3-carboxamide]
IC50 [1]: 45 nM
IC50 ([2]; Homo sapiens): 5 nM

[2H]C([2H])([2H])[C@@H](NC(=O)c1cc(-c2ccc3nc(NC(C)=O)cn3n2)cnc1C)c1cc(C(F)(F)F)ccc1F [Example 197, 5-{2-acetamidoimidazo[1,2-b]pyridazin-6-yl}-N-[(1R)-1-[2-fluoro-5-(trifluoromethyl)phenyl](2,2,2-deutero)ethyl]-2-methylpyridine-3-carboxamide]
IC50 [1]: 72 nM
IC50 ([2]; Homo sapiens): 23 nM

[2H]C([2H])([2H])[C@H](NC(=O)c1cc(-c2ccc3nc(NC(C)=O)cn3n2)cnc1C)c1cc(OC(F)(F)F)ccc1F [Example 198, 5-{2-acetamidoimidazo[1,2-b]pyridazin-6-yl}-N-[(1S)-1-[2-fluoro-5-(trifluoromethoxy)phenyl](2,2,2-deutero)ethyl]-2-methylpyridine-3-carboxamide]
IC50 [1]: 16 nM
IC50 ([2]; Homo sapiens): 14 nM

[2H]C([2H])([2H])[C@@H](NC(=O)c1cc(-c2ccc3nc(NC(C)=O)cn3n2)cnc1C)c1cc(OC(F)(F)F)ccc1F [Example 199, 5-{2-acetamidoimidazo[1,2-b]pyridazin-6-yl}-N-[(1R)-1-[2-fluoro-5-(trifluoromethoxy)phenyl](2,2,2-deutero)ethyl]-2-methylpyridine-3-carboxamide]
IC50 [1]: 13 nM
IC50 ([2]; Homo sapiens): 17 nM

[2H]C([2H])(NC(=O)c1cc(-c2ccc3nc(NC(C)=O)cn3n2)cnc1C)c1cc(C(F)(F)F)ccc1F [Example 200, 5-{2-acetamidoimidazo[1,2-b]pyridazin-6-yl}-N-{[2-fluoro-5-(trifluoromethyl)phenyl] (deutero)methyl}-2-methylpyridine-3-carboxamide]
IC50 [1]: 17 nM
IC50 ([2]; Homo sapiens): 34 nM

CC(=O)Nc1cn2nc(-c3cnc(C)c(C(=O)NCc4cc(F)cc(F)c4OC4CCOCC4)c3)ccc2n1 [Example 201, N-{[3,5-difluoro-2-(oxan-4-yloxy)phenyl]methyl}-5-{2-acetamidoimidazo[1,2-b]pyridazin-6-yl}-2-methylpyridine-3-carboxamide]
IC50 [1]: 6 nM
IC50 ([2]; Homo sapiens): 10 nM

CC(=O)Nc1cn2nc(-c3cnc(C)c(C(=O)NC(C)c4ccccc4OC(F)(F)F)c3)ccc2n1 (centres unmarked) [Example 202, 5-{2-acetamidoimidazo[1,2-b]pyridazin-6-yl}-2-methyl-N-{1-[2-(trifluoromethoxy)phenyl]ethyl}pyridine-3-carboxamide]
IC50 [1]: 32 nM
IC50 [2]: 34 nM

CC(=O)Nc1cn2nc(-c3cnc(C)c(C(=O)NC(C)c4ccccc4OC(F)(F)F)c3)ccc2n1 (centres unmarked) [Example 203, 5-{2-acetamidoimidazo[1,2-b]pyridazin-6-yl}-2-methyl-N-{1-[2-(trifluoromethoxy)phenyl]ethyl}pyridine-3-carboxamide]
IC50 [1]: > 5000 nM
IC50 [2]: > 6250 nM

CC(=O)Nc1cn2nc(-c3cnc(C)c(C(=O)NC(C)c4cc(C(F)(F)F)ccc4F)c3)ccc2n1 (centres unmarked) [Example 204, 5-{2-acetamidoimidazo[1,2-b]pyridazin-6-yl}-N-{1-[2-fluoro-5-(trifluoromethyl)phenyl]ethyl}-2-methylpyridine-3-carboxamide]
IC50 [1]: 122 nM
IC50 ([2]; Homo sapiens): 83 nM
